These results are taken from US20080292619A1, “Pharmaceutical Composition Containing Meltrin Antagonist” (MOCHIDA PHARMACEUTICAL CO., LTD., priority 2004, published 2008).

One data set has as its system human preadipocyte. As to the kind of experiment: Effect of antisense compound on adipocyte proliferation and differentiation (Adipo Red). Format: cell-based. Here is the method:
First, human preadipocyte (Human Preadipocytes-sq POIETICS #PT-5020, Sanko Junyaku Co., Ltd.) was suspended in growth medium (#PT-8200, Sanko Junyaku Co., Ltd.), and after adding the suspension to a 96 well culture plate at 1×10^4 cells/well/100 μL, the cells were cultured overnight at 37° C. in the presence of 5% CO2.
The preadipocyte was cultured overnight, and after washing the preadipocyte twice with serum-free DMEM, Opti-MEM was added at 80 μL/well.
Gene transfection reagent Lipofectin was diluted with Opti-MEM to 20 μg/mL, and the dilution was allowed to stand at room temperature for 30 minutes. Next, the antisense oligodeoxynucleotide synthesized as described above was heated at 90° C. for 3 minutes, and after quenching on ice, diluted with Opti-MEM to a concentration 10 times higher than the final concentration. Equal amounts of the Lipofectin in Opti-MEM and the antisense oligodeoxynucleotide in Opti-MEM were mixed, and the mixture was incubated at room temperature for 15 minutes and added to 96 well plate at 20 μL/well. After incubating at 37° C. for 4 hours in the presence of 5% CO2, it was used for examination as described below.
The differentiation medium was prepared by using growth medium (#PT-8200, Sanko Junyaku Co., Ltd.) and supplement kit (PGM Single Quots, #PT-9500, Sanko Junyaku Co., Ltd.) according to the instruction of the kit. Next, the culture supernatant containing the Lipofectin was removed from the 96 well plate prepared in the above (2), and the plate was washed twice with serum-free DMEM, and the differentiation medium prepared as described above was added at 100 μL/well. The plate was then incubated at 37° C. for 5 days to 15 days in the presence of 5% CO2.
Accumulation of the neutral fat in the adipocyte was determined by fluorometry using Adipo Red stain.
After taking the 96 well plate out of the CO2 incubator, the plate was allowed to stand until it reached room temperature. The plate was centrifuged at 300 g (1200 rpm) for 10 minutes at room temperature to remove the medium. Next, after gently washing with PBS (SIGMA) at 200 μL/well, PBS was added to the well at 200 μL/well. Next, Adipo Red Assay Reagent (Adipo Red, Cat. #PT-7009, Lot.3F0497, A Cambrex Company) was added at 5 μL/well, and the plate was allowed to stand at room temperature for at least 10 minutes to thereby stain the neutral fat accumulated in the adipocyte. The fat accumulation was determined by measuring fluorescence intensity in a fluorometer at an excitation wavelength of 485 nm and an emission wavelength of 535 nm.
The suppression rate of the adipocyte differentiation was calculated by converting the fluorescence intensity of the well transfected with the antisense compound in relation to the fluorescence intensity of the well without transfection with the antisense compound which was assumed as 100%. The result was rated “+” when the suppression rate was at least 25%, “++” when the suppression rate was at least 50%, and “+++” when the suppression rate was at least 75%.

The test system of a further data set is human meltrin α RNA. In words: Suppression of human meltrin α expression by antisense compound in RD cell (real time PCR). Format: cell-based. The settings on record: for suppression rate of expression, 50 nM / suppression rate of expression, 200 nM: corrected by GAPDH; for RNase H-dependent activity of suppressing the meltrin α expression: 2′-methoxy modified form compared to the phosphorothioate form. An outline of the steps:
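RD cells transfected with heat-denatured antisense oligodeoxynucleotide plus Lipofectin in Opti-MEM for 4 h at 37° C, then cultured 18 h. Meltrin α RNA quantified by TaqMan RT-PCR against plasmid standard curve, GAPDH-corrected; suppression vs untreated cells, rated +/++/+++ for ≥30/50/70%.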

In the oligonucleotide strings, read from the 5' end, every base follows the letter of its sugar. An asterisk marks phosphorothioate; unmarked linkages are phosphodiester. Other units and linkages are bracketed, terminal groups are in braces. A string of capitals states the bases alone. d = 2'-deoxy (DNA)

Take “H136 + 19: ctgagggacattcaggccgt (CTGAGGGACATTCAGGCCGT; antisense; DNA, all phosphorothioate, methylation of C not given here)”: the “Score (suppressing the human adipocyte differentiation)” value in the data set on human preadipocyte is reported as “+ (“+” when the suppression rate was at least 25%)”. In addition, the “suppression rate of expression, 50 nM” value in the data set on human meltrin α RNA (50 nM, RD cell) is reported as “+++ (“+++” when the suppression rate was at least 70%)”.

On to “H133 + 2: tcggtgggtaggaatctggc (TCGGTGGGTAGGAATCTGGC; antisense; DNA, all phosphorothioate, methylation of C not given here)”, for which the “Score (suppressing the human adipocyte differentiation)” value in the data set on human preadipocyte is “+ (“+” when the suppression rate was at least 25%)”. Further, the “suppression rate of expression, 50 nM” value in the data set on human meltrin α RNA (50 nM, RD cell) is recorded as “++ (“++” when the suppression rate was at least 50%)”.

In the case of “5 (dG*dT*dT*dT*dG*dG*dC*dT*dT*dA*dC*dA*dG*dG*dT*dC*dC*dC*dC*dT) [compound 5]”, the “Supression of adipose differentiation 300 nM” value in the data set on human preadipocyte (300 nM, human preadipocyte) is reported as “++ (“++” when the suppression rate was at least 50%)”. In addition, the “Supression of expression, 50 nM” value with human meltrin α RNA (50 nM, RD cell) is on record as “++ (“++” when the suppression rate was at least 50%)”.

As to “H130: tgacagggttggaagccacg (TGACAGGGTTGGAAGCCACG; antisense; DNA, all phosphorothioate, methylation of C not given here)”, the “Score (suppressing the human adipocyte differentiation)” value with human preadipocyte was “+++ (“+++” when the suppression rate was at least 75%)”. The “suppression rate of expression, 50 nM” value in the data set on human meltrin α RNA (50 nM, RD cell) is “++ (“++” when the suppression rate was at least 50%)”. Further, the “suppression rate of expression, 200 nM” value in the data set on human meltrin α RNA (RD cell) is on record as “+++ (“+++” when the suppression rate was at least 70%)”. In addition, in the data set with human meltrin α RNA, the “RNase H-dependent activity of suppressing the meltrin α expression” value is on record as “reduced activity of suppressing the meltrin α expression”.

For “H143 + 15: gcttctgaggggggtttggc (GCTTCTGAGGGGGGTTTGGC; antisense; DNA, all phosphorothioate, methylation of C not given here)”, the “Score (suppressing the human adipocyte differentiation)” value in the data set with human preadipocyte was “++ (“++” when the suppression rate was at least 50%)”. For the same substance, the “suppression rate of expression, 50 nM” value with human meltrin α RNA (50 nM, RD cell) was “+++ (“+++” when the suppression rate was at least 70%)”.

As to “H139 + 14: taggtgcacgtggggcccgg (TAGGTGCACGTGGGGCCCGG; antisense; DNA, all phosphorothioate, methylation of C not given here)”, the “Score (suppressing the human adipocyte differentiation)” value in the data set with human preadipocyte is given as “++ (“++” when the suppression rate was at least 50%)”. Moreover, the “suppression rate of expression, 50 nM” value in the data set on human meltrin α RNA (50 nM, RD cell) is “++ (“++” when the suppression rate was at least 50%)”.

In the case of “H131: caaggtggccgaggtgagcc (CAAGGTGGCCGAGGTGAGCC; antisense; DNA, all phosphorothioate, methylation of C not given here)”, the “Score (suppressing the human adipocyte differentiation)” value in the data set on human preadipocyte is “+++ (“+++” when the suppression rate was at least 75%)”. Also, the “suppression rate of expression, 50 nM” value in the data set on human meltrin α RNA (50 nM, RD cell) was “++ (“++” when the suppression rate was at least 50%)”. Also, the “suppression rate of expression, 200 nM” value in the data set with human meltrin α RNA (RD cell) is listed as “+++ (“+++” when the suppression rate was at least 70%)”. Moreover, in the data set on human meltrin α RNA, the “RNase H-dependent activity of suppressing the meltrin α expression” value is “reduced activity of suppressing the meltrin α expression”.

“H005: tgcgtcgcgcgcgcgccgtt (TGCGTCGCGCGCGCGCCGTT; antisense; DNA, all phosphorothioate, methylation of C not given here)”: the “Score (suppressing the human adipocyte differentiation)” value in the data set on human preadipocyte was “++ (“++” when the suppression rate was at least 50%)”. In the data set with human meltrin α RNA (50 nM, RD cell), the “suppression rate of expression, 50 nM” value is recorded as “++ (“++” when the suppression rate was at least 50%)”. Besides, in the data set with human meltrin α RNA (RD cell), the “suppression rate of expression, 200 nM” value is recorded as “++ (“++” when the suppression rate was at least 50%)”.
